Data taken from patent publication US10669268B2, “Bicyclic derivatives” (Hoffmann-La Roche Inc., priority 2012, dated 2020).

Target: ATX (human His-tagged) (Homo sapiens (Human), UniProt Q13822)
Assay: Human ATX enzyme inhibition assay (fluorescence quenching, MR121 substrate)
Type: biochemical
Settings: 30 nM ATX, 1 μM MR121 substrate, 30° C., pH 8.0
Summary of the method: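 Tris-HCl buffer at pH 8.0 contained 140 mM NaCl, 5 mM KCl, 1 mM each CaCl2 and MgCl2, and 0.01% Triton X-100. The MR121 substrate (1 μM final) was incubated with enzyme for 15 min at 30 °C, and activity was read by fluorescence quenching.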

SMILES | IC50
CS(=O)(=O)c1cc(Cl)cc(COC(=O)N2C[C@@H]3CN(C(=O)[C@@H]4CCc5[nH]nnc5C4)C[C@H]3C2)c1 [Example 4.60, (3aS,6aS)-5-((R)-4,5,6,7-tetrahydro-1H-benzotriazole-5-carbonyl)-hexahydro-pyrrolo[3,4-c]pyrrole-2-carboxylic acid 3-chloro-5-methanesulfonyl-benzyl ester] | 5 nM
N#Cc1ccc(COC(=O)N2C[C@@H]3CN(C(=O)c4ccc5[nH]nnc5c4)C[C@H]3C2)c(OC2CCC2)c1 [Example 4.64, (3aS,6aS)-5-(1H-benzotriazole-5-carbonyl)-hexahydro-pyrrolo[3,4-c]pyrrole-2-carboxylic acid 4-cyano-2-cyclobutoxy-benzyl ester] | 19 nM
CC(C)Oc1cc(C#N)ccc1COC(=O)N1C[C@@H]2CN(C(=O)c3ccc4[nH]nnc4c3)C[C@H]2C1 [Example 4.65, (3aS,6aS)-5-(1H-benzotriazole-5-carbonyl)-hexahydro-pyrrolo[3,4-c]pyrrole-2-carboxylic acid 4-cyano-2-isopropoxy-benzyl ester] | 14 nM
N#Cc1ccc(COC(=O)N2C[C@@H]3CN(C(=O)c4ccc5[nH]nnc5c4)C[C@H]3C2)c(OCC(F)(F)F)c1 [Example 4.66, (3aS,6aS)-5-(1H-benzotriazole-5-carbonyl)-hexahydro-pyrrolo[3,4-c]pyrrole-2-carboxylic acid 4-cyano-2-(2,2,2-trifluoro-ethoxy)-benzyl ester] | 40 nM
CCOc1cc(Cl)c(F)cc1COC(=O)N1C[C@@H]2CN(C(=O)c3ccc4[nH]nnc4c3)C[C@H]2C1 [Example 4.67, (3aS,6aS)-5-(1H-benzotriazole-5-carbonyl)-hexahydro-pyrrolo[3,4-c]pyrrole-2-carboxylic acid 4-chloro-2-ethoxy-5-fluoro-benzyl ester] | 8 nM
O=C(OCc1cc(Cl)cc(Cl)c1)N1C[C@H]2C[C@@H](Nc3ccc4[nH]c(=O)oc4c3)C[C@H]2C1 [Example 5, (3aR,5r,6aS)-3,5-Dichlorobenzyl 5-(2-oxo-2,3-dihydrobenzo[d]oxazol-6-ylamino)hexahydrocyclopenta[c]pyrrole-2(1H)-carboxylate] | 248 nM
O=C(OCc1cc(Cl)cc(Cl)c1)N1C[C@H]2CN(Cc3ccc4[nH]cnc4c3)C[C@H]2C1 [Example 6, (3aR,6aS)-3,5-Dichlorobenzyl 5-((1H-benzo[d]imidazol-5-yl)methyl)hexahydropyrrolo[3,4-c]pyrrole-2(1H)-carboxylate] | 10400 nM
O=C(OCc1cc(Cl)cc(Cl)c1)N1C[C@H]2CN(Cc3ccc4[nH]ncc4c3)C[C@H]2C1 [Example 6.02] | 2810 nM
O=C(OCc1cc(Cl)cc(Cl)c1)N1C[C@H]2CN(Cc3ccc4[nH]c(=O)oc4c3)C[C@H]2C1 [Example 6.03] | 531 nM
O=C(CCc1cc(Cl)cc(Cl)c1)N1C[C@H]2CN(Cc3ccc4[nH]c(=O)oc4c3)C[C@H]2C1 [Example 6.04] | 282 nM
N#Cc1ccc(/C=C/C(=O)N2CC[C@@H]3CN(Cc4ccc5[nH]nnc5c4)C[C@@H]3CC2)cc1 [Example 6.05] | 179 nM
O=C(OCc1cc(Cl)cc(Cl)c1)N1C[C@@H]2CN(S(=O)(=O)c3ccc4[nH]c(=O)oc4c3)C[C@@H]2C1 [Example 7, (3aR,6aS)-3,5-Dichlorobenzyl 5-(2-oxo-2,3-dihydrobenzo[d]oxazol-6-ylsulfonyl)hexahydropyrrolo[3,4-c]pyrrole-2(1H)-carboxylate] | 22 nM
O=C(OCc1cc(Cl)cc(Cl)c1)N1C[C@@H]2CN(C(=O)N3CCc4[nH]nnc4C3)C[C@@H]2C1 [Example 8, (3aR,6aS)-3,5-dichlorobenzyl 5-(4,5,6,7-tetrahydro-1H-[1,2,3]triazolo[4,5-c]pyridine-5-carbonyl)hexahydropyrrolo[3,4-c]pyrrole-2(1H)-carboxylate] | 108 nM
O=C(/C=C/c1ccc(OC(F)(F)F)cc1)N1CC[C@@H]2CN(C(=O)N3CCc4[nH]nnc4C3)C[C@@H]2CC1 [Example 8.01] | 2 nM
O=C(/C=C/c1ccc(OC(F)(F)F)cc1)N1CC[C@@H]2CN(C(=O)N3CCc4[nH]ncc4C3)C[C@@H]2CC1 [Example 8.02] | 186 nM
O=C1N[C@@H]2CCN(C(=O)N3C[C@H]4CCN(C(=O)/C=C/c5ccc(OC(F)(F)F)cc5)CC[C@H]4C3)C[C@@H]2O1 [Example 8.03] | 911 nM
O=C(/C=C/c1ccc(OC(F)(F)F)cc1)N1CC[C@@H]2CN(C(=O)N3CCc4[nH]c(=O)ccc4C3)C[C@@H]2CC1 [Example 8.04] | 192 nM
O=C1N[C@@H]2CCN(C(=O)N3C[C@H]4CCN(C(=O)/C=C/c5ccc(OC(F)(F)F)cc5)CC[C@H]4C3)C[C@H]2O1 [Example 8.05] | 149 nM
O=C(/C=C/c1ccc(OC(F)(F)F)cc1)N1CC[C@@H]2CN(C(=O)N3CCc4ncccc4C3)C[C@@H]2CC1 [Example 8.06] | 192 nM
O=C(/C=C/c1ccc(OC(F)(F)F)cc1)N1CC[C@@H]2CN(C(=O)N3CCn4nc(C(F)(F)F)nc4C3)C[C@@H]2CC1 [Example 8.07] | 1840 nM
O=C(/C=C/c1ccc(OC(F)(F)F)cc1)N1CC[C@@H]2CN(C(=O)NCc3cnn[nH]3)C[C@@H]2CC1 [Example 9, (3aR,8aS)—N-((1H-1,2,3-Triazol-5-yl)methyl)-6-((E)-3-(4-(trifluoromethoxy)phenyl)-acryloyl)octahydropyrrolo[3,4-d]azepine-2(1H)-carboxamide] | 709 nM

SMILES | IC50
O=C(/C=C/c1ccc(OC(F)(F)F)cc1)N1CC[C@@H]2CN(C(=O)NCc3cnn[nH]3)C[C@@H]2CC1 [Example 9.01] | 38 nM
O=C(/C=C/c1ccc(OC(F)(F)F)cc1)N1C[C@@H]2CN(C(=O)NCc3c[nH]nn3)C[C@@H]2C1 [Example 9.02] | 1600 nM
O=C(/C=C/c1ccc(OC(F)(F)F)c(F)c1)N1CC[C@@H]2CN(C(=O)NCc3cnn[nH]3)C[C@@H]2CC1 [Example 9.03] | 42 nM
O=C(/C=C/c1ccc(OC(F)(F)F)cc1)N1CC[C@@H]2CN(C(=O)NCc3nnc[nH]3)C[C@@H]2CC1 [Example 9.04] | 713 nM
O=C(/C=C/c1ccc(OC(F)(F)F)cc1)N1CC[C@@H]2CN(C(=O)N3CCc4[nH]cnc4C3)C[C@@H]2CC1 [Example 9.06] | 247 nM
CN(Cc1cnn[nH]1)C(=O)N1C[C@H]2CCN(C(=O)/C=C/c3ccc(OC(F)(F)F)cc3)CC[C@H]2C1 [Example 9.07, (3aR,8aS)-N-((1H-1,2,3-triazol-5-yl)methyl)-N-methyl-6-((E)-3-(4-(trifluoromethoxy)phenyl)-acryloyl)octahydro-pyrrolo[3,4-d]azepine-2(1H)-carboxamide] | 74 nM
CC(C)(Cc1cccc(Cl)c1)C(=O)N1CC[C@@H]2CN(C(=O)NCc3cnn[nH]3)C[C@@H]2CC1 [Example 9.08] | 3400 nM
O=C(/C=C/c1ccc(OC(F)(F)F)cc1)N1CC[C@@H]2CN(C(=O)NCCc3cnn[nH]3)C[C@@H]2CC1 [Example 9.09, (3aR,8aS)-N-(2-(1H-1,2,3-triazol-5-yl)ethyl)-6-((E)-3-(4-(trifluoromethoxy)-phenyl)acryloyl)octahydropyrrolo[3,4-d]azepine-2(1H)-carboxamide] | 162 nM
NS(=O)(=O)C1CCN(C(=O)N2C[C@H]3CN(C(=O)OCc4ccc(OC(F)(F)F)cc4)C[C@@H]3C2)CC1 [Example 9.10] | 7 nM
O=C(OCc1cc(Cl)cc(Cl)c1)N1CC[C@@H]2CN(C(=O)c3ccc4[nH]nnc4c3)C[C@@H]2C1 [Example 10A, (3aR,7aS)-2-(1H-Benzotriazole-5-carbonyl)-octahydro-pyrrolo[3,4-c]pyridine-5-carboxylic acid 3,5-dichloro-benzyl ester] | 36 nM
O=C(OCc1cc(Cl)cc(Cl)c1)N1CC[C@H]2CN(C(=O)c3ccc4[nH]nnc4c3)C[C@H]2C1 [Example 10B, (3aS,7aR)-2-(1H-benzotriazole-5-carbonyl)-octahydro-pyrrolo[3,4-c]pyridine-5-carboxylic acid 3,5-dichloro-benzyl ester] | 118 nM
O=C(/C=C/c1ccc(OC(F)(F)F)cc1)N1C[C@@H]2CN(C(=O)c3ccc4[nH]nnc4c3)C[C@@H]2C1 [Example 15, (E)-1-((3aR,6aS)-5-(1H-Benzo[d][1,2,3]triazole-5-carbonyl)hexahydropyrrolo[3,4-c]pyrrol-2(1H)-yl)-3-(4-(trifluoromethoxy)phenyl)prop-2-en-1-one] | 26 nM
O=C(c1ccc2[nH]nnc2c1)N1C[C@@H]2CN(C(=O)c3cc4cc(Cl)ccc4[nH]3)C[C@@H]2C1 [Example 15.01] | 1620 nM
O=C(/C=C/c1cc(F)cc(C(F)(F)F)c1)N1C[C@@H]2CN(C(=O)c3ccc4[nH]nnc4c3)C[C@@H]2C1 [Example 15.02] | 96 nM
O=C(CCc1cc(F)cc(C(F)(F)F)c1)N1C[C@@H]2CN(C(=O)c3ccc4[nH]nnc4c3)C[C@@H]2C1 [Example 15.03] | 362 nM
O=C(c1ccc2[nH]nnc2c1)N1C[C@@H]2CN(C(=O)c3cc4ccc(Cl)cc4[nH]3)C[C@@H]2C1 [Example 15.04] | 2020 nM
O=C(/C=C/c1ccc(Cl)cc1)N1CC[C@@H]2CN(C(=O)c3ccc4[nH]nnc4c3)C[C@@H]2CC1 [Example 15.06] | 12 nM
Cc1ccc(/C=C/C(=O)N2CC[C@@H]3CN(C(=O)c4ccc5[nH]nnc5c4)C[C@@H]3CC2)cc1 [Example 15.07] | 21 nM
CN(C)S(=O)(=O)c1ccc(/C=C/C(=O)N2CC[C@@H]3CN(C(=O)c4ccc5[nH]nnc5c4)C[C@@H]3CC2)cc1 [Example 15.08] | 977 nM
COc1ccc(/C=C/C(=O)N2CC[C@@H]3CN(C(=O)c4ccc5[nH]nnc5c4)C[C@@H]3CC2)cc1 [Example 15.09] | 42 nM
O=C(/C=C/c1ccc(OC(F)(F)F)cc1)N1C[C@H]2CCN(C(=O)c3ccc4[nH]nnc4c3)CC[C@H]2C1 [Example 15.10] | 34 nM
